Reference: patent publication US20240109885A1, “2,3-DIHYDRO-1H-PYRROLO[3,2-B]PYRIDINE DERIVATIVE, PREPARATION METHOD THEREFOR, AND APPLICATION THEREOF” (Abbisko Therapeutics Co., Ltd, priority 2020, published 2024)

Target: Ba/F3 EGFR-D770-N771ins_SVD (Homo sapiens, UniProt P00533, DUP768-770, cells depend on it)
Assay: Cell proliferation assay (CellTiter-Glo), Ba/F3 EGFR-D770-N771ins_SVD cells
Assay type: cell-based
Conditions: 72 hrs, CTG assay, * = average of multiple measurements, read-out: Ba/F3 EGFR-D770-N771ins_SVD (nM), IC50 of cell proliferation
Method: I. Cell proliferation assay (i) Reagents and consumables • Fetal bovine serum (FBS) (GBICO, Cat #10099-141); • CellTiter-Glo® Luminescent Cell Viability Assay Kit (Promega, Cat #G7572); • Black transparent flat-bottomed 96-well plate (Corning®, Cat #3603).
• SpectraMax Multi-Label Microplate Detector MD, 2104-0010A; • CO2 incubator, Thermo Scientific 3100 Series; • Biosafety cabinet, Thermo Scientific, 1300 Series type A2; • Inverted microscope, Olympus, CKX41SF; • Siemens refrigerator KK25E76TI. (iii) Cell lines and culture conditions
(iv) Experimental procedures 1. Cell culture and seeding: • (1) Cells in the logarithmic growth phase were harvested, and counted using a platelet counter. Cell viability was detected by the trypan blue exclusion assay to ensure that the cell viability was above 90%. • (2) The cell concentration was adjusted to achieve the final density; and 90 μL of the cell suspension was added to the 96-well plate. • (3) The cells were incubated in the 96-well plate overnight at 37° C. in the presence of 5% CO2 with 95% humidity. 2. TO benchmark data: • (1) 10 μL of PBS was added to each well of the TO flat plate containing the cells. • (2) The CTG reagent was thawed, and the cell plate was equilibrated to room temperature for 30 min. • (3) An equal volume of CTG solution was added to each well. • (4) The cells were shaken for 5 min on an orbital shaker for lysis. • (5) The cell plate was left at room temperature for 20 min to stabilize luminescent signals. • (6) The values of TO luminescent signals were read. 3. Compound dilution and addition • (1) According to the compound information table, a corresponding volume of DMSO was added to the corresponding compound powder to prepare a 10 mM stock solution. • (2) Compound solutions diluted at 1000 fold and 3.16 fold were prepared. • (3) The compound solution diluted at 1000 fold was diluted at 100 fold with PBS, to prepare the compound solutions at 10 fold in 9 concentrations, with the maximum concentration of […]; and the compound solution was diluted at 3.16 fold. 10 μL of medicament solution was added to each well of the seeded 96-well plate. Three replicate wells were provided for each concentration of the compound, and the final concentration of DMSO was 0.1%. • (4) Cells were placed in the 96-well plate containing the medicament and subsequently cultured for 72 hrs at 37° C. in the presence of 5% CO2 with 95% humidity, and then, CTG assay was conducted. 4. Reading of luminescent signals • (1) The CTG reagent was thawed, and the cell plate was equilibrated to room temperature for 30 min. • (2) An equal volume of CTG solution was added to each well. • (3) The cells were shaken for 5 min on an orbital shaker for lysis.
(4) The cell plate was left at room temperature for 20 min to stabilize the luminescent signals. • (5) Luminescent values were read. Data processing
The data were analyzed using software GraphPad Prism 7.0, and fitted by the nonlinear S-curve regression to obtain a dose-effect curve, based on which the IC50 value (unit: nM) was calculated, with the specific test results shown in Table 1.
Cell viability (%)=(Lum test medicament-Lum culture medium control)/(Lum cell control-Lum culture medium control)×100%.

Sequence of Ba/F3 EGFR-D770-N771ins_SVD (P00533 with tags, fused parts or gaps DUP768-770): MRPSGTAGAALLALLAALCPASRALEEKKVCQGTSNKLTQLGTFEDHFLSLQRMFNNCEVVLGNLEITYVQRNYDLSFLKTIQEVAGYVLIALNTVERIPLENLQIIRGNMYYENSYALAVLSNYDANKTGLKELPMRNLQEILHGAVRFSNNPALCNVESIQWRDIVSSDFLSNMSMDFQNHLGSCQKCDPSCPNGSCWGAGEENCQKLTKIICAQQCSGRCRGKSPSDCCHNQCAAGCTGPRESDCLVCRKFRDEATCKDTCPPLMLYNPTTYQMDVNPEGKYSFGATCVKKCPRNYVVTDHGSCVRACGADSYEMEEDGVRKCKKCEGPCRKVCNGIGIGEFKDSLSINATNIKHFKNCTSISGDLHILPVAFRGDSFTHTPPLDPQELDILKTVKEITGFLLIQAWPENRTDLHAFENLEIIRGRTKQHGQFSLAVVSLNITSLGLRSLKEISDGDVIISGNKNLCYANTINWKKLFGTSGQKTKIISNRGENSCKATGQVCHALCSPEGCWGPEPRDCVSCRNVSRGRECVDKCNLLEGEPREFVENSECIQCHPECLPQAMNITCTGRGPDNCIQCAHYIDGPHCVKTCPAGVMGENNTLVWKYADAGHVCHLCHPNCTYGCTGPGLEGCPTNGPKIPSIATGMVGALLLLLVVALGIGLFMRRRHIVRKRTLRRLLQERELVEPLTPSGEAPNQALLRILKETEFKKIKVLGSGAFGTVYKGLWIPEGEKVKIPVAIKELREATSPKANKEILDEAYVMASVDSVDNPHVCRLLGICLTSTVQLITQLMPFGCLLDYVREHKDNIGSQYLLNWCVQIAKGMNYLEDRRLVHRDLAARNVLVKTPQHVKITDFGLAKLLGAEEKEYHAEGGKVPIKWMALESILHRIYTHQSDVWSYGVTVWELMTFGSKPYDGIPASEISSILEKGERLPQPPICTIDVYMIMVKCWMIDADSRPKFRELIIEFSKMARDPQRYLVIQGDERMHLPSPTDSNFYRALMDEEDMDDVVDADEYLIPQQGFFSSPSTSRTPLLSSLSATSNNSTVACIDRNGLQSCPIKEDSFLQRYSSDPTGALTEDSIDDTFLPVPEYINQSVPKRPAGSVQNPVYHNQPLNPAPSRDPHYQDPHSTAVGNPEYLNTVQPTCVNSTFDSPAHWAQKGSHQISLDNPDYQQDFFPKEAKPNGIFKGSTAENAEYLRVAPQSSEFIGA

Structure (SMILES) | GI50 [nM]
C=CC(=O)Nc1cc(Nc2nccc(N3CC4(CCCC4)c4nc(C)ccc43)n2)c(OCC(F)(F)F)cc1N(C)CCN(C)C [Example 40] | 37
C=CC(=O)Nc1cc(Nc2ncnc(N3CC(C)(C)c4nc(Br)ccc43)n2)c(OC)cc1N(C)CCN(C)C [Example 41, N-(5-((4-(5-bromo-3,3-dimethyl-2,3-dihydro-1H-pyrrolo[3,2-b]pyridin-1-yl)-1,3,5-triazin-2-yl)amino)-2-((2-(dimethylamino)ethyl) (methyl)amino)-4-methoxyphenyl) acrylamide] | 35.5
C=CC(=O)Nc1cc(Nc2nccc(N3CC(C)(C)c4nc(C)c(C)cc43)n2)c(OC(C)C)cc1N(C)CCN(C)C [Example 43, N-(2-((2-(dimethylamino)ethyl) (methyl)amino)-4-isopropoxy-5-((4-(3,3,5,6-tetramethyl-2,3-dihydro-1H-pyrrolo[3,2-b]pyridin-1-yl)pyrimidin-2-yl)amino)phenyl)acrylamide] | 38.5
C=CC(=O)Nc1cc(Nc2nccc(N3CC(C)(C)c4nc(-c5cn[nH]c5)ccc43)n2)c(OC)cc1N(C)CCN(C)C [Example 58, N-(5-((4-(3,3-dimethyl-5-(1H-pyrazol-4-yl)-2,3-dihydro-1H-pyrrolo[3,2-b]pyridin-1-yl)pyrimidin-2-yl)amino)-2-((2-(dimethylamino)ethyl)(methyl)amino)-4-methoxyphenyl)acrylamide] | 68.2
C=CC(=O)Nc1cc(Nc2cc(N3CC(C)(C)c4nc(-c5cnn(C)c5)ccc43)ncn2)c(OC)cc1N(C)CCN(C)C [Example 66, N-(5-((6-(3,3-dimethyl-5-(1-methyl-1H-pyrazol-4-yl)-2,3-dihydro-1H-pyrrolo[3,2-b]pyridin-1-yl)pyrimidin-4-yl)amino)-2-((2-(dimethylamino)ethyl)(methyl)amino)-4-methoxyphenyl)acrylamide] | 89.1
C=CC(=O)Nc1cc(Nc2cc(N3CC(C)(C)c4nc(-c5cnn(C)c5)ccc43)ccn2)c(OC)cc1N(C)CCN(C)C [Example 67, N-(5-((4-(3,3-dimethyl-5-(1-methyl-1H-pyrazol-4-yl)-2,3-dihydro-1H-pyrrolo[3,2-b]pyridin-1-yl)pyridin-2-yl)amino)-2-((2-(dimethyl-amino)ethyl)(methyl)amino)-4-methoxyphenyl)acrylamide] | 108
C=CC(=O)Nc1cc(Nc2cc(N3CC(C)(C)c4nc(C5CC5)ccc43)ncn2)c(OC)nc1N(C)CCN(C)C [Example 70, N-(5-((6-(5-cyclopropyl-3,3-dimethyl-2,3-dihydro-1H-pyrrolo[3,2-b]pyridin-1-yl)pyrimidin-4-yl)amino)-2-((2-(dimethylamino)ethyl) (methyl)amino)-6-methoxypyridin-3-yl)acrylamide] | 121
C=CC(=O)Nc1cc(Nc2ncnc(N3CC4(CCN(C)C4)c4nc(C)ccc43)n2)c(OC)cc1N(C)CCN(C)C (centres unmarked) [Example 72, N-(2-((2-(dimethylamino)ethyl) (methyl)amino)-5-((4-(1,5′-dimethyl-spiro[pyrrolidin-3,3′-pyrrolo[3,2-b]pyridin]-1′(2′H)-yl)-1,3,5-triazin-2-yl)amino)-4-methoxyphenyl) acrylamide] | 298

Second part, the molecule after the results:

GI50 [nM] | Structure (SMILES)
108 | C=CC(=O)Nc1cc(Nc2nccc(N3CC4(CCOCC4)c4nc(C)ccc43)n2)c(OC)cc1N(C)CCN(C)C [Example 65]
372 | C=CC(=O)Nc1cc(Nc2nccc(N3CC4(CCN(C)C4)c4nc(C)ccc43)n2)c(OC)cc1N(C)CCN(C)C (centres unmarked) [Example 71, N-(2-((2-(dimethylamino)ethyl) (methyl)amino)-5-((4-(1,5′-dimethyl-spiro[pyrrolidin-3,3′-pyrrolo[3,2-b]pyridin]-1′(2′H)-yl)pyrimidin-2-yl)amino)-4-methoxyphenyl) acrylamide]
811 | C=CC(=O)Nc1cc(Nc2nccc(N3CC4(CN(C)C4)c4nc(C)ccc43)n2)c(OC)cc1N(C)CCN(C)C [Example 73, N-(2-((2-(dimethylamino)ethyl) (methyl)amino)-5-((4-(1,5′-dimethyl-spiro[azetidine-3,3′-pyrrolo[3,2-b]pyridin]-1′(2′H)-yl)pyrimidin-2-yl)amino)-4-methoxyphenyl) acrylamide]
